Test systems include ACHN renal; HOP-62 NSCLC; M14 melanoma; MALME-3M melanoma; RPMI-8226 leukemia; SK-MEL-28 melanoma; SN12C renal; T-47D breast.
Assay in all cases: NCI tumour cell line growth inhibition, 48 h

Values joined by “and” are separate entries in the source; they are usually repeats but may differ in a detail not shown here. Equal values may be shown once.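 Method: 48-hour compound exposure of cells in 96-well plates, five concentrations, linear interpolation of endpoints. GI50 = concentration required for 50% inhibition of growth. TGI denotes the concentration required for complete inhibition of growth.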

As for `COc1cccc2c(Nc3ccc(C(=O)NCCN(C)C)cc3)cc(-c3ccccc3)nc12`, the GI50 in the experiment on ACHN renal was 17.6 µM; with HOP-62 NSCLC it was 13.8 µM; in the experiment on M14 melanoma, 16.3 µM; in the experiment with MALME-3M melanoma, 20 µM; in the experiment with RPMI-8226 leukemia it was 6.11 µM; with SK-MEL-28 melanoma, 37.1 µM. Further, the figures for the GI50 in the experiment with SN12C renal and in the experiment on T-47D breast were 16.1 µM and 19.7 µM, respectively. Also, the TGI was 37.9 µM in the experiment with ACHN renal; 29.3 µM with HOP-62 NSCLC; 30.5 µM in the experiment with M14 melanoma; 40.2 µM in the experiment with MALME-3M melanoma; 24.4 µM in the experiment on RPMI-8226 leukemia; greater than 100 µM in the experiment with SK-MEL-28 melanoma. In addition, the TGI in the experiment with SN12C renal came out at 36.4 µM; in the experiment on T-47D breast, 50.2 µM.
`Clc1ccc(-c2cn(-c3ccccc3)c(-c3ccccc3)n2)c(Cl)c1`: the GI50 was 2.22 µM in the experiment on ACHN renal; 1.36 µM in the experiment on HOP-62 NSCLC; 2.47 µM in the experiment with M14 melanoma; 1.32 µM in the experiment with MALME-3M melanoma; 4.93 µM in the experiment with RPMI-8226 leukemia; 4.86 µM in the experiment with SK-MEL-28 melanoma. Also, the GI50 is 4.09 µM in the experiment with SN12C renal and 2.52 µM in the experiment with T-47D breast. In addition, the TGI was greater than 50 µM in the experiment on ACHN renal; 5.02 µM in the experiment on HOP-62 NSCLC; greater than 15.1 µM in the experiment on M14 melanoma; 6.92 µM with MALME-3M melanoma; greater than 10.2 µM in the experiment with RPMI-8226 leukemia; greater than 41.2 µM in the experiment with SK-MEL-28 melanoma. In addition, the TGI in the experiment with SN12C renal was greater than 30.1 µM; in the experiment with T-47D breast it was greater than 50 µM.
For `COc1ccc(Nc2c[nH]c(=O)[nH]c2=O)cc1`, the TGI with ACHN renal, with HOP-62 NSCLC, in the experiment with M14 melanoma, with MALME-3M melanoma, with RPMI-8226 leukemia and in the experiment on SK-MEL-28 melanoma was greater than 100 µM each time. In addition, the TGI in the experiment on SN12C renal and in the experiment on T-47D breast was greater than 100 µM throughout.
Take `CCCCC#Cc1cccc(=O)o1`: the GI50 in the experiment with HOP-62 NSCLC was greater than 100 µM; in the experiment with M14 melanoma, 4.5 µM; in the experiment with MALME-3M melanoma, 57.4 µM; in the experiment on RPMI-8226 leukemia, 2.03 µM; in the experiment on SK-MEL-28 melanoma it was 18.3 µM; in the experiment with T-47D breast, 29.2 µM. The TGI in the experiment with HOP-62 NSCLC was greater than 100 µM; in the experiment with M14 melanoma, greater than 100 µM; in the experiment with MALME-3M melanoma, greater than 100 µM; in the experiment on RPMI-8226 leukemia, 49.9 µM; with SK-MEL-28 melanoma, greater than 100 µM; in the experiment on T-47D breast it was greater than 100 µM.
For the molecule `Clc1ccc(Nc2nc3ccccc3c3occc23)cc1`, the GI50 is 9.16 µM in the experiment with ACHN renal; 9.19 µM in the experiment on HOP-62 NSCLC; 8.46 µM in the experiment on M14 melanoma; 11.3 µM with RPMI-8226 leukemia; 6.39 µM in the experiment with SK-MEL-28 melanoma; 10.9 µM in the experiment with SN12C renal. For the same molecule, the GI50 in the experiment on T-47D breast was 1.52 µM. Further, the TGI in the experiment with ACHN renal was 18.9 µM; with HOP-62 NSCLC, 17.3 µM; in the experiment on M14 melanoma it was 16.9 µM; with RPMI-8226 leukemia it was 27.4 µM; in the experiment on SK-MEL-28 melanoma, 14.4 µM; with SN12C renal, 22.6 µM. In the experiment with T-47D breast, this molecule came in with a TGI of 11.3 µM.
As for `CS(=O)(=O)CS(=O)CS(=O)CS(=O)CC(NC(=O)CCC(N)C(=O)O)C(=O)O` (centres undefined), the TGI in the experiment on ACHN renal, in the experiment with HOP-62 NSCLC, with M14 melanoma, in the experiment on RPMI-8226 leukemia, in the experiment with SK-MEL-28 melanoma and with SN12C renal was greater than 100 µM in each case. In the experiment with T-47D breast, this molecule gave a TGI greater than 100 µM.
For `COc1ccc(-c2[nH]ncc2-c2cc(OC)c(OC)c(OC)c2)cc1`, the GI50 in the experiment with ACHN renal was less than 0.01 µM; with HOP-62 NSCLC it was less than 0.01 µM; with M14 melanoma, less than 0.01 µM; with RPMI-8226 leukemia, 0.0132 µM; in the experiment with SK-MEL-28 melanoma it was less than 0.0185 µM. For the same molecule, the TGI in the experiment on ACHN renal is greater than 42.9 µM; with HOP-62 NSCLC, greater than 100 µM; in the experiment with M14 melanoma it was 0.852 µM; in the experiment on RPMI-8226 leukemia, 16 µM; in the experiment on SK-MEL-28 melanoma, 33.6 µM; in the experiment on SN12C renal it was greater than 81.8 µM.
With `CCc1nc(N)nc(N)c1-c1ccc(Cl)c(N=NN(C)C)c1`, the TGI is greater than 89.7 µM in the experiment with ACHN renal; greater than 73.9 µM with HOP-62 NSCLC; 58.9 µM in the experiment with M14 melanoma; 49 µM in the experiment with RPMI-8226 leukemia; greater than 75.5 µM with SK-MEL-28 melanoma; greater than 100 µM in the experiment with SN12C renal. In the experiment with T-47D breast, this molecule had a TGI greater than 93 µM.
Regarding `Oc1ccc(SCc2ccc(NCc3ccccc3)cc2)cc1`, the TGI with ACHN renal was greater than 100 µM; in the experiment on HOP-62 NSCLC, greater than 100 µM; in the experiment with M14 melanoma, 44.5 µM; in the experiment on MALME-3M melanoma, greater than 100 µM; in the experiment on SK-MEL-28 melanoma it was greater than 100 µM; in the experiment with SN12C renal, 64.6 µM. In the experiment on T-47D breast, this molecule displayed a TGI of 56.6 µM.
As to `COc1ccc(Cn2cc(Cn3c(=O)c(-c4nc5ccccc5[nH]4)cc4ccccc43)nn2)c(OC)c1OC`, the GI50 with ACHN renal was 0.476 µM and 0.68 µM; in the experiment with HOP-62 NSCLC, 0.179 µM and 0.525 µM; in the experiment with MALME-3M melanoma it was 0.139 µM and 0.42 µM; in the experiment with RPMI-8226 leukemia it was 0.129 µM; with SK-MEL-28 melanoma, 0.539 µM and 0.912 µM; in the experiment with SN12C renal, 0.217 µM and 0.426 µM. Besides, in the experiment on T-47D breast, the GI50 was 0.154 µM and 0.804 µM. Moreover, the TGI with ACHN renal was 1.67 µM and 4.17 µM; with HOP-62 NSCLC, 0.938 µM and 3.87 µM; in the experiment with MALME-3M melanoma, 0.985 µM and 2.8 µM; in the experiment on RPMI-8226 leukemia it was 1.15 µM; with SK-MEL-28 melanoma, 1.66 µM and 4.61 µM; in the experiment with SN12C renal it was 50 µM and > 100 µM.
On to `COP1(=S)OCC2CCC[C@@H]2O1` (some centres undefined), for which the TGI with ACHN renal, in the experiment on M14 melanoma, in the experiment with MALME-3M melanoma, with RPMI-8226 leukemia, with SK-MEL-28 melanoma and in the experiment with SN12C renal was greater than 100 µM each time. In addition, the TGI with T-47D breast was greater than 100 µM.
On to `CCN1CCCCC(=N\O)/C(=N/O)CCCC1`, for which the TGI in the experiment on ACHN renal, in the experiment on HOP-62 NSCLC, in the experiment on M14 melanoma, in the experiment on MALME-3M melanoma, in the experiment on RPMI-8226 leukemia and in the experiment on SK-MEL-28 melanoma was greater than 100 µM throughout. Moreover, the TGI with SN12C renal was greater than 100 µM.
`COc1ccc2c(c1)C(=O)c1c-2n(CCCCl)c(=O)c2cc(N(C)C)ccc12`: the GI50 is 36 µM in the experiment with ACHN renal; 26.6 µM in the experiment with HOP-62 NSCLC; greater than 100 µM with M14 melanoma; 63.8 µM in the experiment with MALME-3M melanoma; greater than 100 µM with SK-MEL-28 melanoma; 49.8 µM in the experiment with SN12C renal. Moreover, in the experiment on T-47D breast, the GI50 is 34.6 µM. In addition, the TGI with ACHN renal was greater than 100 µM; in the experiment on HOP-62 NSCLC, 69 µM; with M14 melanoma it was greater than 100 µM; in the experiment with MALME-3M melanoma it was greater than 100 µM; in the experiment on SK-MEL-28 melanoma it was greater than 100 µM; in the experiment with SN12C renal, greater than 100 µM. Further, in the experiment on T-47D breast, the TGI was greater than 100 µM.

(Values after PubChem BioAssay (NCI).)
